“Also recorded” adds a separate entry of the source.
Key:
[1] = tested on: TGF-β1 signaling in tibias; assay: pSmad2/3 staining of tibias after intraperitoneal injection (bone delivery and release); conditions: 100 μg/kg intraperitoneal injection, compared with vehicle control
Procedure: Histochemistry, immunohistochemistry, and immunofluorescence: At the time of euthanasia, tibias were collected and fixed in 10% buffered formalin for 48 h, decalcified in 10% EDTA (pH 7.4) for 14 d, and then embedded in paraffin. […] Immunostaining was performed using a standard protocol. Sections were incubated with primary antibodies to mouse pSmad2/3 (Santa Cruz Biotechnology Inc., 1:50, sc-11769) and osteocalcin (Takara Bio Inc., 1:200, M137) overnight at 4° C. For immunohistochemical staining, a liquid Diaminobenzidine (DAB)+Chromogen System (Dako, K3468) was used to detect immunoreactivity, followed by counterstaining with hematoxylin and eosin (Sigma-Aldrich, MHS16).
Compound 1 was also tested for tissue distribution following intraperitoneal injection. […] It was then determined whether the conjugate delivered TβR1I (TGF-beta type 1 receptor inhibitor) specifically to bone and hydrolyzed over time (intraperitoneal injection, DMSO, 100 μg/kg of ALN, Inhibitor, or Conjugate).

bone metastasis = conditions: literature; cited from earlier work
[2] = pharmaceutical data, cited from earlier work
CED mice [3] = assay: CED mouse model, 8-week treatment: μCT of tibia and fracture incidence; conditions: for total BV/TV: among all groups; for bone fracture incidence: 100 μg/kg i.p. once a week, 2-month (8-week) treatment
Procedure: All transgenic animals used in this study are as described in the Animals section. […] During cell counting, microCT analysis and histological staining analysis, all manual quantification is performed in a blind manner to eliminate observer bias. Animals were randomly assigned to groups for experiments in CED animal studies.
(§1) Mice: According to Tang et al., Nat Med. 15:757-765 (2009), a mutation in the coding area of the TGF-β1 latency protein was generated in mice, and the active form of TGF-β1 was secreted by osteoblasts. […] All mice received the intraperitoneal injections once a week for 2 months, beginning at 1 month of age until sacrifice at 3 months of age. The tibias of the mice were collected and analyzed.
Microcomputed tomography analysis: Tibia collected from mice were dissected to remove soft tissue, fixed overnight in 70% ethanol, and analyzed with a high-resolution microcomputed tomography (μCT) imaging system (MicroCT40; Scanco Medical AG, Basserdorf, Switzerland). The scanner was set at a voltage of 55 kVp and a current of 109 μA. The resulting two-dimensional longitude-sectional images or three-dimensional whole-bone images are shown in gray scale. Three-dimensional structural parameters, total bone volume per tissue volume, cortical bone volume, cortical bone thickness, and cortical bone porosity were given.

CED mice [4] = assay: CED mouse model: histology and immunofluorescence of tibia (HE, TRAP, Ocn, Osx, Col1, CD31/Emcn, LepR); format: in vivo; conditions: for number of Col1+ cells compared with Littermate group / number of Ocn+ cells compared with Littermate group / number of Osx+ cells compared with Littermate group: co-staining with Emcn; for LepR+pSmad2/3+ dual positive BMSC (immunofluorescence): tibia sections
Procedure: as §1
(§2) Immunostaining was performed using a standard protocol.
Immunofluorescence staining was performed using as described. […] Secondary antibodies conjugated with fluorescence were added, and slides were incubated at room temperature for 1 h while avoiding light. Sections were microphotographed to perform histomorphometric measurements (Olympus DP71). The quantitative histomorphometric analysis was conducted in a blinded fashion with OsteoMeasureXP Software (OsteoMetrics, Inc.). […]

CED mice [5] = assay: CED mouse model: flow cytometry of tibia bone marrow cells; format: in vivo; conditions: for CD31+Emcn+ double positive cells (FACS of tibia bone marrow): 8-week treatment; for number of LepR+ cells in bone marrow (FACS): distal one-third of tibia, 2 months of treatment
Procedure: Flow cytometry: Bone marrow cells in the distal one-third of tibia were collected from each group (n=6) after 2 months of conjugate treatment. Red blood cells were lysed in commercial ACK lysis buffer (Quality Biological, Inc., 118-156-101). After centrifugation (1,200 r.p.m. for 5 min at room temperature), cell pellets were resuspended and fixed in 4% PFA. Cells were then washed with 0.1% BSA in PBS and counted. One million cells per milliliter were permeabilized in 0.1% Triton X-100 before blocking in 3% FACS buffer (PBS, 3% FBS, and 0.1% NaN3 sodium azide) for 30 min on ice. Cells were incubated with endomucin antibody (Santa Cruz, sc-65495), Leptin Receptor (R&D, 1:100, AF497), or isotype control antibody for 1 h at 37° C. in a dark room and then washed twice with 0.1% BSA in PBS. After washing, cells were stained with APC-conjugated CD31 antibody (R&D Systems, FAB3628A) for 45 min. Cells were acquired immediately after washing with 3% FACS buffer. Probes were analyzed using a FACS Calibur flow cytometer and CellQuest software (Becton Dickinson).

CED mice [6] = conditions: intraperitoneal injection; Nat Med. 15:757-765 (2009); cited from earlier work
TGF-β1 signaling pathway = assay: CED mouse model: pSmad2/3 immunohistochemistry of tibia; format: in vivo, mice; conditions: 8-week treatment, compared with CED group and ALN group
Procedure: as §1, §2
Immunofluorescence staining was performed using as described. […] Secondary antibodies conjugated with fluorescence were added, and slides were incubated at room temperature for 1 h while avoiding light. Sections were microphotographed to perform histomorphometric measurements (Olympus DP71). The quantitative histomorphometric analysis was conducted in a blinded fashion with OsteoMeasureXP Software (OsteoMetrics, Inc.). The number of positively stained cells in the whole tibia subchondral bone area per specimen was counted in five sequential sections per mouse in each group.

[7] = tested on: TGF-β1 signaling (pSmad2/3) in BMSCs; assay: pSmad2/3 immunofluorescence staining of BMSCs exposed to TGF-β1; format: cell-based, mice; conditions: 10 μM for 1 h, 24 h, 48 h, then 5 ng/ml TGF-β1 for 30 min
Procedure: (§3) Cell culture: HeLa cells and BMSCs from mice were cultured in Dulbecco's Modified Eagle's Medium (GIBCO) supplemented with 10% fetal bovine serum (FBS; Sigma), 100 units/ml penicillin, 100 μg/ml streptomycin (Sigma), and 2 mM glutamine and were incubated at 37° C. in a humidified chamber supplemented with 5% CO2. […] Cells were then exposed to 5 ng/ml of recombinant human TGF-β1 (R&D Systems) for 30 min and processed for cell staining and Western blotting.
Cell staining: BMSCs were washed 3 times with PBS and fixed by 4% paraformaldehyde (PFA) for 30 min. Cells were then washed 3 times with PBS and incubated with 3% BSA, 0.1% Triton in PBS for 1 h. […] Secondary antibodies conjugated with fluorescence were added, and plates were incubated at room temperature for 1 h while avoiding light. Cells were counted under the microscope (Olympus DP71).

[8] = tested on: TGF-β1 signaling (pSmad2) in HeLa cells; assay: Western blot of pSmad2 in HeLa cells exposed to TGF-β1; format: cell-based, human
Procedure: as §3
Western blot: HeLa cells were lysed with […] and […] (Roche), and mixed with an equal volume of 2×SDS-PAGE sample buffer with DTT. Samples were boiled and cleared by centrifuge, separated by SDS-PAGE, and transferred onto nitrocellulose (NC) membranes. Membranes were blocked with 5% non-fat dry milk and incubated with primary antibodies at 4° C. overnight. Primary antibodies include rabbit anti-Smad2 antibody (Cell Signaling Technology, 3122, 1:1,000) and rabbit anti-Phospho-Smad2 (Ser465/467) antibody (Cell Signaling Technology, 3108, 1:1,000). HRP-conjugated goat anti-rabbit IgG (Santa Cruz Biotechnology, 2054, 1:5,000) was used as secondary antibody. Signals were detected with Super Signal West Dura Extended Duration Substrate (Thermo Scientific).

wild-type mice = assay: 7-day survival of wild-type mice after conjugate injection; format: in vivo
Procedure: FIG. 1 presents graphs showing that a conjugate of the present disclosure, Compound 1, delivers a TβR1I specifically to bone and releases it in a time-dependent manner. […] Part (C) presents quantification of the Western-blot band intensity in (B). Data are presented as relative level of p-SMAD2/SMAD2 ratio normalized to DMSO condition. […] Part (E) presents quantification data of pSmad2/3^+ cells in (D). […] Of 6 mice in the 5 mg/kg group, 2 died in 7 days. […] Part (H) presents quantification data of pSmad2/3^+ cells in (G). In FIG. 1, the following conventions are used: NS, not significant. **P<0.01, ****P<0.0001 determined by multifactorial ANOVA. All data are reported as the mean±s.d.

[9] = tested on: heart, liver, lung, and kidney; assay: HE and pSmad2/3 staining of heart, liver, kidney and lung; format: in vivo, mice; conditions: after conjugate administration
Procedure: as §2

OCCOc1ccc2c(-c3c(-c4ccccn4)nn4c3CCC4)ccnc2c1 [Compound S-3, reference compound]
TGF-β1 signaling in tibias (pSmad2/3 staining) [1]: did not inhibit TGF-β1 signaling; also recorded: did not show significant differences

c1ccc(-c2nn3c(c2-c2ccnc4cc(OCCN5CCOCC5)ccc24)CCC3)nc1 [LY2109761]
bone metastasis in mice (bone metastasis): reduce a potential of bone metastasis

NCCCC(O)(P(=O)(O)O)P(=O)(O)O [ALN, 4-amino-1-hydroxybutylidene-1,1-bisphosphonic acid monosodium trihydrate, reference compound]
time to reach bone [2]: less than 2 hours | fraction that reaches bone ([2]; the rest is excreted in urine): 50-70% | bone porosity rate (CED mice [3]; 100 μg/kg per week, 8 weeks): significantly increased | cortical bone thickness (CED mice [3]; 100 μg/kg per week, 8 weeks): significantly increased | total cortical bone volume (CED mice [3]; 100 μg/kg per week, 8 weeks): decreased | total BV/TV (CED mice [3]; 100 μg/kg per week, 8 weeks): no significant difference | bone fracture incidence (CED mice [3]; CED mice): 50% | CD31+Emcn+ vessel surfaces (immunofluorescence) (CED mice [4]; 8-week treatment): highly increased | bone formation in diaphysis bone marrow (HE staining) (CED mice [4]; 8-week treatment, compared with Conjugate and Littermate group): aberrant bone formation was found | number of Col1+ cells compared with Littermate group (CED mice [4]): significantly increased | number of Ocn+ cells compared with Littermate group (CED mice [4]): significantly increased | number of Osx+ cells compared with Littermate group (CED mice [4]): significantly increased | LepR+pSmad2/3+ dual positive BMSC (immunofluorescence) (CED mice [4]): significantly increased | CD31+Emcn+ double positive cells (FACS of tibia bone marrow) (CED mice [5]): highly increased | number of LepR+ cells in bone marrow (FACS) (CED mice [5]): significantly increased

Cc1cccc(-c2[nH]c(C(C)(C)C)nc2-c2ccc3c(c2)OCO3)n1 [SB505124]
bone remodeling defects in CED mice (CED mice [6]): rescued bone remodeling defects

Fc1ccc(Cl)cc1-c1nc(Nc2ccncc2)c2nccnc2n1 [SD-208]
bone metastasis in mice (bone metastasis): effective in treating mice with bone metastases

O=C(NCCCC(O)(P(=O)(O)O)P(=O)(O)O)OCCOc1ccc2c(-c3c(-c4ccccn4)nn4c3CCC4)ccnc2c1 [Compound 1, (1-hydroxy-4-(((2-((4-(2-(pyridin-2-yl)-5,6-dihydro-4H-pyrrolo[1,2-b]pyrazol-3-yl)quinolin-7-yl)oxy)ethoxy)carbonyl)amino)butane-1,1-diyl)bis(phosphonic acid)]
pSmad2/3 positive cells in tibia (TGF-β1 signaling pathway): significantly decreased | TGF-β1 signaling in tibias (pSmad2/3 staining) [1]: significantly reduced; also recorded: inhibited in a time-dependent manner | number of pSmad2/3-positive cells (immunofluorescence) [7]: significantly reduced | cortical bone parameters compared with Littermate group (CED mice [3]; 100 μg/kg per week, 8 weeks): no significant difference | total BV/TV (CED mice [3]; 100 μg/kg per week, 8 weeks): no significant difference | bone morphology of tibia (μCT three-dimensional reconstruction) (CED mice [3]; 100 μg/kg per week, 8 weeks, compared with CED and ALN-treated mice): significantly improved | total BV/TV distribution (CED mice [3]; 100 μg/kg per week, 8 weeks, tibia cross-sections): restored | bone parameters (CED mice [3]; 2-month treatment): restored bone parameters | side effects (CED mice [3]; CED mice): no obvious side effects | bone fracture incidence (CED mice [3]; CED mice): 8.3% | dose that effectively attenuated CED progression (CED mice [3]; CED mice, intraperitoneal): 100 μg/kg per week | bone remodeling of CED mice (CED mice [4]; 2-month treatment): restored normal bone remodeling | CD31+Emcn+ vessel surfaces (immunofluorescence) (CED mice [4]; 8-week treatment): rescued abnormal vessel formation | number of TRAP+ cells (CED mice [4]; 8-week treatment, diaphysis): decreased | number of Ocn+ cells (CED mice [4]; 8-week treatment, diaphysis, TRAP and Ocn co-staining): decreased | level of TGF-β1 (CED mice [4]; CED mice): decreased | number and distribution of Osx+, Col1α+, and Ocn+ cells (CED mice [4]; CED mice): rescued | type H vessels (CED mice [4]; CED mice): significantly decreased | number of Col1+ cells compared with Littermate group (CED mice [4]): no significant difference | number of Ocn+ cells compared with Littermate group (CED mice [4]): no significant difference | number of Osx+ cells compared with Littermate group (CED mice [4]): no significant difference | LepR+pSmad2/3+ dual positive BMSC (immunofluorescence) (CED mice [4]): significantly decreased | expression level of pSmad2 (Western blot) ([8]; HeLa cells, 10 μM for 1 h, 24 h, 48 h, then 5 ng/ml TGF-β1 for 30 min): significantly reduced | start of TβR1I release in cells (after) ([8]; Western blotting and immunofluorescence staining): ≥ 24 h | CD31+Emcn+ double positive cells (FACS of tibia bone marrow) (CED mice [5]): significantly reduced | number of LepR+ cells in bone marrow (FACS) (CED mice [5]; listed as conjugate): significantly decreased | 7-day survival (wild-type mice; 50 μg/kg, one intraperitoneal injection per week, n=6): no mice death; also recorded: survived for 7 days | 7-day survival (wild-type mice; 100 μg/kg, one intraperitoneal injection per week, n=6): no mice death; also recorded: survived for 7 days | 7-day survival (wild-type mice; 1 mg/kg, one intraperitoneal injection per week, n=6): no mice death; also recorded: survived for 7 days | mice that died in 7 days (of 6) (wild-type mice; 5 mg/kg, one intraperitoneal injection per week): 2 | 7-day survival (wild-type mice; 10 mg/kg, one intraperitoneal injection per week): all died in 3 days | safe dose (wild-type mice; intraperitoneal administration, wild-type mice): below 5 mg/kg per week | HE staining and pSmad2/3 staining of heart, liver, lung, and kidney [9]: normal tissue structures and TGF-β1 activation; also recorded: does not affect other organs
